# Assay results from paper PMC4109671, “Cloning, Expression, Purification, and Characterization of Glutaredoxin from Antarctic Sea-Ice Bacterium Pseudoalteromonas sp. AN178” (BioMed Research International, 2014).
# Test system: T1, rPsGrx
# T1 construct: gene PsGrx; active site C12-P-F-C15 (abstract prints CPYC)
# Test: GSH-dependent HED reduction coupled to yeast glutathione reductase, NADPH consumption at […] nm; Lineweaver-Burk
# Type: biochemical, Pseudoalteromonas sp. AN178
# Details: HED 0.4 to 8 mM, 1 mM GSH fixed, yeast GR, apparent Km, standard assay at 25°C
smiles,measurement,value
OCCSSCCO [HED],Km,460 µM
